US10370425B2, “Peptide antagonists of the calcitonin CGRP family of peptide hormones and their use” (priority 2012, dated 2019)
Positions of bridges follow the written chain, without caps; N, C: chain ends. Residues, ends and D or L forms follow the SMILES beside them.

These molecules were tested against T1, amylin receptor, AMY1, a CT (calcitonin) receptor/RAMP1 (receptor-activity modifying protein) complex (Homo sapiens, UniProt O60894+P30988) (assay: Calcium flux assay (FLIPR Calcium 4) of inhibition of α-CGRP stimulation in CHO-K1/AMY1/Gα15 cells). Conditions: at maximal test concentration (series starts with 1 μM); CHO-K1/AMY1/Gα15 cells stimulated with 32 nM (EC80) α-CGRP; n = 2; read-out: % Inhibition @ Maximal concentration (Mean +/− SD, n = 2).
T1 construct: host or cells: CHO-K1/AMY1/Gα15
T1 sequence (P30988 25-474): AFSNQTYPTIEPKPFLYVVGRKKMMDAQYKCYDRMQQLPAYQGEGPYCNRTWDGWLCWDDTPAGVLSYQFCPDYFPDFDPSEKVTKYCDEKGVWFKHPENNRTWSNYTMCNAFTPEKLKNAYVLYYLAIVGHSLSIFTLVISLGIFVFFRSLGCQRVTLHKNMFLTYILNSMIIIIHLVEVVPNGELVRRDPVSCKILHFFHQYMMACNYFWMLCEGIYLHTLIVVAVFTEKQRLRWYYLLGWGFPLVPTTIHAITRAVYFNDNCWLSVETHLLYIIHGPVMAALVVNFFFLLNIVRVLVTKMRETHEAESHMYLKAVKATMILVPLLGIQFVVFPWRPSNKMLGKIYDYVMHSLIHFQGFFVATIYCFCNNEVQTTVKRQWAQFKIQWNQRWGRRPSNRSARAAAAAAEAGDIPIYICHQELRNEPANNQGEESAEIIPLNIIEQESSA
T1 sequence (O60894 27-148): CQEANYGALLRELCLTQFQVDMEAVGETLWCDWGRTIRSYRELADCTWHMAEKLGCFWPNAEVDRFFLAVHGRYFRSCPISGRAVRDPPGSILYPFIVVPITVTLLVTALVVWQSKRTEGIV
Type: cell-based
Method: Using a calcium flux assay, the dose-dependent inhibitory response of peptide antagonists of the present invention on an amylin receptor, AMY1, a CT (calcitonin) receptor/RAMP1 (receptor-activity modifying protein) complex was determined. The recombinant cell line CHO-K1/AMY1/Gα15 (GenScript, Piscataway, N.J., Catalog No. M00475) was employed in the assay. Peptide antagonist activities were tested, in duplicate, at five different concentrations, starting with 1 μM and serially diluted five-fold, in DMSO. AC187 (SEQ ID NO: 55), a known amylin receptor antagonist (available for example from Tocris Bioscience, Minneapolis, Minn., Catalog No. 3419) was used as a positive control in the assays, and human α-CGRP, a known amylin receptor agonist (SEQ ID NO:56) , (available for example from Tocris Bioscience, Minneapolis, Minn., Catalog No. 3012) was used as a positive control in the assays. The FLIPR® Calcium 4 Assay Kit (Molecular Devices, Sunnyvale, Calif.) was used.
Human α-CGRP having the amino acid sequence, NH2-[…]-NH2 (SEQ ID NO:56) and AC187 having the sequence […] (SEQ ID NO: 55) were employed as negative and positive controls, respectively. Stock solutions were further diluted in HBSS-HEPES buffer to make 5×final control solutions.
CHO-K1/AMY1/Gα15 cells were seeded in a 384-well black wall, clear bottom plate at a density of 20,000 cells/well in 20 μL of growth medium 20 hours prior to the day of the experiment and maintained at 37° C./5% CO2.
Per the assay kit protocol, dye-loading solution (at 2×final concentration) was added into the assay plate, 20 μL per well. Compound solution (at 5 ×final concentration) was added into the assay plate, 10 uL per well. The assay plate was placed into a 37° C. incubator for 1 hour, then left for 15 min at RT. The agonist plate (at 5×EC80 concentration) was placed in Source 2. The total reading time was 120 sec. The agonist was added after 20 seconds reading of the baseline and the fluorescence signal was captured for another 100 seconds (21 s to 120 s).
In screening, cells stimulated with assay buffer were chosen as the background; cells stimulated with agonist (at […] concentration) were chosen as the negative control.
Data were recorded by ScreenWorks (version 3.1) as FMD files and stored on the GenScript computer network for off-line analysis. Data acquisition and analyses was performed using ScreenWorks (version 3.1) program and exported to Excel. The average value of 20 (1 s to 20 s) seconds reading was calculated as the baseline reading and the relative fluorescent units (ΔRFU) intensity values were calculated with the maximal fluorescent units (21 s to 120 s) subtracting the average value of baseline reading.
The IC50 value of AC187 was 8 μM. The inhibitory activity of the tested peptide antagonists was normalized with the negative control (AC187) and reported as % Inhibition, calculated from the following equation: % Inhibition=(ΔRFUcompound−ΔRFUBackground)/(ΔRFUNegative control−ΔRFUBackground) * 100% Inhibition was then plotted along the Y-axis, with the test concentrations as indicated on the X-axis. The peptides were tested at indicated concentrations and stimulated with 32 nM (EC80) α-CGRP (Mean +/− SD, n=2).

Row | Structure (SMILES) | inhibition at 1 µM [%]
1 | CC(C)C[C@H](NC(=O)[C@H](CCCNC(=N)N)NC(=O)CNC(=O)[C@H](CC(C)C)NC(=O)[C@@H](NC(=O)[C@@H]1CSSC[C@H](NC(=O)[C@H](C)N)C(=O)N[C@@H](CC(=O)O)C(=O)N[C@@H]([C@@H](C)O)C(=O)N[C@@H](C)C(=O)N[C@@H](C(C)C)C(=O)N1)C(C)C)C(=O)N[C@@H](CO)C(=O)N[C@@H](CCC(N)=O)C(=O)N[C@@H](CCC(=O)O)C(=O)N[C@@H](CC(C)C)C(=O)N[C@@H](Cc1c[nH]cn1)C(=O)N[C@@H](CCCNC(=N)N)C(=O)N[C@@H](CC(C)C)C(=O)N[C@@H](CCC(N)=O)C(=O)N[C@H](C(=O)N[C@@H](Cc1ccc(O)cc1)C(=O)N1CCC[C@H]1C(=O)N[C@@H](CCCNC(=N)N)C(=O)N[C@H](C(=O)N[C@@H](CC(N)=O)C(=O)N[C@H](C(=O)NCC(=O)N[C@@H](CO)C(=O)N[C@@H](CCCCN)C(=O)N[C@@H](C)C(=O)N[C@@H](Cc1ccccc1)C(N)=O)C(C)C)[C@@H](C)O)[C@@H](C)O [compound 3] (H-ACDTAVCVLGRLSQELHRLQTYPRTNVGSKAF-NH2; disulfide 2-7 (inferred)) | 95.9
2 | CC(C)C[C@@H]1NC(=O)[C@H](C)NC(=O)[C@H]([C@@H](C)O)NC(=O)[C@H](CC(=O)O)NC(=O)[C@@H](NC(=O)[C@H](C)N)CSSC[C@@H](C(=O)N[C@H](C(=O)N[C@@H](CC(C)C)C(=O)NCC(=O)N[C@@H](CCCNC(=N)N)C(=O)N[C@@H](CC(C)C)C(=O)N[C@@H](CO)C(=O)N[C@@H](CCC(N)=O)C(=O)N[C@@H](CCC(=O)O)C(=O)N[C@@H](CC(C)C)C(=O)N[C@@H](Cc2c[nH]cn2)C(=O)N[C@@H](CCCNC(=N)N)C(=O)N[C@@H](CC(C)C)C(=O)N[C@@H](CCC(N)=O)C(=O)N[C@H](C(=O)N[C@@H](Cc2ccc(O)cc2)C(=O)N2CCC[C@H]2C(=O)N[C@@H](CCCNC(=N)N)C(=O)N[C@H](C(=O)N[C@@H](CC(N)=O)C(=O)N[C@H](C(=O)NCC(=O)N[C@@H](CO)C(=O)N[C@@H](CCCCN)C(=O)N[C@@H](C)C(=O)N[C@@H](Cc2ccccc2)C(N)=O)C(C)C)[C@@H](C)O)[C@@H](C)O)C(C)C)NC1=O [compound 9] (H-ACDTALCVLGRLSQELHRLQTYPRTNVGSKAF-NH2; disulfide 2-7 (inferred)) | 95.6
3 | CC(C)C[C@H](NC(=O)[C@H](CCCNC(=N)N)NC(=O)CNC(=O)[C@H](CC(C)C)NC(=O)[C@@H](NC(=O)[C@@H]1CSSC[C@H](NC(=O)[C@H](C)N)C(=O)N[C@@H](CC(=O)O)C(=O)N[C@@H]([C@@H](C)O)C(=O)N[C@@H](C)C(=O)N[C@@H](CO)C(=O)N1)C(C)C)C(=O)N[C@@H](CO)C(=O)N[C@@H](CCC(N)=O)C(=O)N[C@@H](CCC(=O)O)C(=O)N[C@@H](CC(C)C)C(=O)N[C@@H](Cc1c[nH]cn1)C(=O)N[C@@H](CCCNC(=N)N)C(=O)N[C@@H](CC(C)C)C(=O)N[C@@H](CCC(N)=O)C(=O)N[C@H](C(=O)N[C@@H](Cc1ccc(O)cc1)C(=O)N1CCC[C@H]1C(=O)N[C@@H](CCCNC(=N)N)C(=O)N[C@H](C(=O)N[C@@H](CC(N)=O)C(=O)N[C@H](C(=O)NCC(=O)N[C@@H](CO)C(=O)N[C@@H](CCCCN)C(=O)N[C@@H](C)C(=O)N[C@@H](Cc1ccccc1)C(N)=O)C(C)C)[C@@H](C)O)[C@@H](C)O [compound 2] (H-ACDTASCVLGRLSQELHRLQTYPRTNVGSKAF-NH2; disulfide 2-7 (inferred)) | 96.5
4 | CC(C)C[C@H](NC(=O)[C@H](CCCNC(=N)N)NC(=O)CNC(=O)[C@H](CC(C)C)NC(=O)[C@@H](NC(=O)[C@@H]1CSSC[C@H](NC(=O)[C@H](C)N)C(=O)N[C@@H](CC(N)=O)C(=O)N[C@@H]([C@@H](C)O)C(=O)N[C@@H](C)C(=O)N[C@@H](C)C(=O)N1)C(C)C)C(=O)N[C@@H](CO)C(=O)N[C@@H](CCC(N)=O)C(=O)N[C@@H](CCC(=O)O)C(=O)N[C@@H](CC(C)C)C(=O)N[C@@H](Cc1c[nH]cn1)C(=O)N[C@@H](CCCNC(=N)N)C(=O)N[C@@H](CC(C)C)C(=O)N[C@@H](CCC(N)=O)C(=O)N[C@H](C(=O)N[C@@H](Cc1ccc(O)cc1)C(=O)N1CCC[C@H]1C(=O)N[C@@H](CCCNC(=N)N)C(=O)N[C@H](C(=O)N[C@@H](CC(N)=O)C(=O)N[C@H](C(=O)NCC(=O)N[C@@H](CO)C(=O)N[C@@H](CCCCN)C(=O)N[C@@H](C)C(=O)N[C@@H](Cc1ccccc1)C(N)=O)C(C)C)[C@@H](C)O)[C@@H](C)O [compound 4] (H-ACNTAACVLGRLSQELHRLQTYPRTNVGSKAF-NH2; disulfide 2-7 (inferred)) | 94.6
5 | CC(C)C[C@H](NC(=O)[C@H](CCCNC(=N)N)NC(=O)CNC(=O)[C@H](CC(C)C)NC(=O)[C@@H](NC(=O)[C@@H]1CSSC[C@H](NC(=O)[C@H](C)N)C(=O)N[C@@H](CC(N)=O)C(=O)N[C@@H](CC(C)C)C(=O)N[C@@H](CO)C(=O)N[C@@H](C)C(=O)N1)C(C)C)C(=O)N[C@@H](CO)C(=O)N[C@@H](CCC(N)=O)C(=O)N[C@@H](CCC(=O)O)C(=O)N[C@@H](CC(C)C)C(=O)N[C@@H](Cc1c[nH]cn1)C(=O)N[C@@H](CCCNC(=N)N)C(=O)N[C@@H](CC(C)C)C(=O)N[C@@H](CCC(N)=O)C(=O)N[C@H](C(=O)N[C@@H](Cc1ccc(O)cc1)C(=O)N1CCC[C@H]1C(=O)N[C@H](C(=O)N[C@@H](CC(N)=O)C(=O)N[C@H](C(=O)NCC(=O)N[C@@H](CO)C(=O)NCC(=O)N[C@H](C(=O)N1CCC[C@H]1C(N)=O)[C@@H](C)O)[C@@H](C)O)[C@@H](C)O)[C@@H](C)O [compound 13] (H-ACNLSACVLGRLSQELHRLQTYPTNTGSGTP-NH2; disulfide 2-7 (inferred)) | 95.8
6 | CC(C)C[C@H](NC(=O)[C@H](CCCNC(=N)N)NC(=O)CNC(=O)[C@H](CC(C)C)NC(=O)[C@@H](NC(=O)[C@@H]1CSSC[C@H](NC(=O)[C@H](C)N)C(=O)N[C@@H](CC(N)=O)C(=O)N[C@@H](CC(C)C)C(=O)N[C@@H](CO)C(=O)N[C@@H](C(C)C)C(=O)N1)C(C)C)C(=O)N[C@@H](CO)C(=O)N[C@@H](CCC(N)=O)C(=O)N[C@@H](CCC(=O)O)C(=O)N[C@@H](CC(C)C)C(=O)N[C@@H](Cc1c[nH]cn1)C(=O)N[C@@H](CCCNC(=N)N)C(=O)N[C@@H](CC(C)C)C(=O)N[C@@H](CCC(N)=O)C(=O)N[C@H](C(=O)N[C@@H](Cc1ccc(O)cc1)C(=O)N1CCC[C@H]1C(=O)N[C@@H](CCCNC(=N)N)C(=O)N[C@H](C(=O)N[C@@H](CC(N)=O)C(=O)N[C@H](C(=O)NCC(=O)N[C@@H](CO)C(=O)N[C@@H](CCCCN)C(=O)N[C@@H](C)C(=O)N[C@@H](Cc1ccccc1)C(N)=O)C(C)C)[C@@H](C)O)[C@@H](C)O [compound 11] (H-ACNLSVCVLGRLSQELHRLQTYPRTNVGSKAF-NH2; disulfide 2-7 (inferred)) | 96.5
7 | CC[C@H](C)[C@@H]1NC(=O)[C@H](C)NC(=O)[C@H]([C@@H](C)O)NC(=O)[C@H](CC(=O)O)NC(=O)[C@@H](NC(=O)[C@H](C)N)CSSC[C@@H](C(=O)N[C@H](C(=O)N[C@@H](CC(C)C)C(=O)NCC(=O)N[C@@H](CCCNC(=N)N)C(=O)N[C@@H](CC(C)C)C(=O)N[C@@H](CO)C(=O)N[C@@H](CCC(N)=O)C(=O)N[C@@H](CCC(=O)O)C(=O)N[C@@H](CC(C)C)C(=O)N[C@@H](Cc2c[nH]cn2)C(=O)N[C@@H](CCCNC(=N)N)C(=O)N[C@@H](CC(C)C)C(=O)N[C@@H](CCC(N)=O)C(=O)N[C@H](C(=O)N[C@@H](Cc2ccc(O)cc2)C(=O)N2CCC[C@H]2C(=O)N[C@@H](CCCNC(=N)N)C(=O)N[C@H](C(=O)N[C@@H](CC(N)=O)C(=O)N[C@H](C(=O)NCC(=O)N[C@@H](CO)C(=O)N[C@@H](CCCCN)C(=O)N[C@@H](C)C(=O)N[C@@H](Cc2ccccc2)C(N)=O)C(C)C)[C@@H](C)O)[C@@H](C)O)C(C)C)NC1=O [compound 10] (H-ACDTAICVLGRLSQELHRLQTYPRTNVGSKAF-NH2; disulfide 2-7 (inferred)) | 96.8
